Measurements taken from ChEMBL document CHEMBL1201862, “PubChem BioAssay data set” (2004).
Active and inactive are the calls of the source.

How the values were obtained:
Bcl-2-related protein A1 = biological target: T1, Bcl-2-related protein A1 (Mus musculus, UniProt Q07440); format: functional;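 note: confirmatory dose–response counterscreen on Bfl-1, used to check hits from a UBC13 polyubiquitin inhibitor campaign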
T1 sequence (Q07440 whole entry): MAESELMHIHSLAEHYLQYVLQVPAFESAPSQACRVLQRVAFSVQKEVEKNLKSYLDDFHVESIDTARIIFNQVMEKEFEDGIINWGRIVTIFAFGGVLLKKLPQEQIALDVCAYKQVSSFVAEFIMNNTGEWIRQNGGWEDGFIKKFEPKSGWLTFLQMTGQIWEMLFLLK

[1] = inhibitors of intracellular T. cruzi replication, confirmation, NIH3T3 host cells, beta-gal luminescence (AID 2044); format: functional, cell-based;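 note: intracellular parasites grown in NIH/3T3 mouse fibroblasts as host cells; luminescent beta-galactosidase reporter signal from transgenic T. cruzi replicating inside host cells; inhibitors lower the luminescence signal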
[2] = biological target: T2, Heat shock factor protein 1 (Mus musculus, UniProt P38532); assay: HSF1 potentiators in luciferase reporter cells, confirmation, cell-based, NIH3T3, luminescence, dose retest (AID 435004); format: functional;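 note: stress induced by proteasome inhibitor MG132 added 30 min after compound; luciferase reporter driven by HSF1 response element in NIH3T3 cells; actives raise luminescence as potentiators of the MG132 stress response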
T2 sequence (P38532 whole entry): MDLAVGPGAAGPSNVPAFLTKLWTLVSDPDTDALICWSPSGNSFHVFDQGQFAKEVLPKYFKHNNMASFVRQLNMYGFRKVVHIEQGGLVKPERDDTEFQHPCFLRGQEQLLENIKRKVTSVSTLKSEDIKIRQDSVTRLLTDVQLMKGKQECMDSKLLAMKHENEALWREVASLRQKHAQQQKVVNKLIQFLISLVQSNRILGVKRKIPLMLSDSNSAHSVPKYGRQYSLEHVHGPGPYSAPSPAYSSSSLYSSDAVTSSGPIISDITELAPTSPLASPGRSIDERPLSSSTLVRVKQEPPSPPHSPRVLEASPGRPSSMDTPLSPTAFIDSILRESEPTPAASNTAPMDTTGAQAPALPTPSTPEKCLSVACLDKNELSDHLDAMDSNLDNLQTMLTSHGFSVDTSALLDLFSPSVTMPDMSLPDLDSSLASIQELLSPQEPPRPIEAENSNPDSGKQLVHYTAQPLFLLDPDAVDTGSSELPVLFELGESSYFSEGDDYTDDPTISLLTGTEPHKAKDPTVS

[3] = biological target: T3, Ubiquitin-conjugating enzyme E2 N (Homo sapiens, UniProt P61088); format: functional
T3 sequence (P61088 whole entry): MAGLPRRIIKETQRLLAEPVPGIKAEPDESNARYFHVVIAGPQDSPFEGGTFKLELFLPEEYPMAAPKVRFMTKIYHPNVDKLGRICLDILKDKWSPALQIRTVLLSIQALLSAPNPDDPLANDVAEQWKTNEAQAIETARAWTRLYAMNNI

[4] = cytotoxicity toward NIH3T3 fibroblasts, dose response, counter-screen, cell-based, ATP luminescence, mouse fibroblasts (AID 2010); format: functional;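 note: cells exposed to compound for about 90 hours before reading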
[5] = biological target: T3, Ubiquitin-conjugating enzyme E2 N; format: functional; remark: listed apart in the source
[6] = biological target: Voltage-dependent T-type calcium channel subunit alpha-1H (Homo sapiens, UniProt O95180); format: functional;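 note: channel activity triggered by adding a high calcium stimulation buffer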
Chain of Voltage-dependent T-type calcium channel subunit alpha-1H (O95180 whole entry): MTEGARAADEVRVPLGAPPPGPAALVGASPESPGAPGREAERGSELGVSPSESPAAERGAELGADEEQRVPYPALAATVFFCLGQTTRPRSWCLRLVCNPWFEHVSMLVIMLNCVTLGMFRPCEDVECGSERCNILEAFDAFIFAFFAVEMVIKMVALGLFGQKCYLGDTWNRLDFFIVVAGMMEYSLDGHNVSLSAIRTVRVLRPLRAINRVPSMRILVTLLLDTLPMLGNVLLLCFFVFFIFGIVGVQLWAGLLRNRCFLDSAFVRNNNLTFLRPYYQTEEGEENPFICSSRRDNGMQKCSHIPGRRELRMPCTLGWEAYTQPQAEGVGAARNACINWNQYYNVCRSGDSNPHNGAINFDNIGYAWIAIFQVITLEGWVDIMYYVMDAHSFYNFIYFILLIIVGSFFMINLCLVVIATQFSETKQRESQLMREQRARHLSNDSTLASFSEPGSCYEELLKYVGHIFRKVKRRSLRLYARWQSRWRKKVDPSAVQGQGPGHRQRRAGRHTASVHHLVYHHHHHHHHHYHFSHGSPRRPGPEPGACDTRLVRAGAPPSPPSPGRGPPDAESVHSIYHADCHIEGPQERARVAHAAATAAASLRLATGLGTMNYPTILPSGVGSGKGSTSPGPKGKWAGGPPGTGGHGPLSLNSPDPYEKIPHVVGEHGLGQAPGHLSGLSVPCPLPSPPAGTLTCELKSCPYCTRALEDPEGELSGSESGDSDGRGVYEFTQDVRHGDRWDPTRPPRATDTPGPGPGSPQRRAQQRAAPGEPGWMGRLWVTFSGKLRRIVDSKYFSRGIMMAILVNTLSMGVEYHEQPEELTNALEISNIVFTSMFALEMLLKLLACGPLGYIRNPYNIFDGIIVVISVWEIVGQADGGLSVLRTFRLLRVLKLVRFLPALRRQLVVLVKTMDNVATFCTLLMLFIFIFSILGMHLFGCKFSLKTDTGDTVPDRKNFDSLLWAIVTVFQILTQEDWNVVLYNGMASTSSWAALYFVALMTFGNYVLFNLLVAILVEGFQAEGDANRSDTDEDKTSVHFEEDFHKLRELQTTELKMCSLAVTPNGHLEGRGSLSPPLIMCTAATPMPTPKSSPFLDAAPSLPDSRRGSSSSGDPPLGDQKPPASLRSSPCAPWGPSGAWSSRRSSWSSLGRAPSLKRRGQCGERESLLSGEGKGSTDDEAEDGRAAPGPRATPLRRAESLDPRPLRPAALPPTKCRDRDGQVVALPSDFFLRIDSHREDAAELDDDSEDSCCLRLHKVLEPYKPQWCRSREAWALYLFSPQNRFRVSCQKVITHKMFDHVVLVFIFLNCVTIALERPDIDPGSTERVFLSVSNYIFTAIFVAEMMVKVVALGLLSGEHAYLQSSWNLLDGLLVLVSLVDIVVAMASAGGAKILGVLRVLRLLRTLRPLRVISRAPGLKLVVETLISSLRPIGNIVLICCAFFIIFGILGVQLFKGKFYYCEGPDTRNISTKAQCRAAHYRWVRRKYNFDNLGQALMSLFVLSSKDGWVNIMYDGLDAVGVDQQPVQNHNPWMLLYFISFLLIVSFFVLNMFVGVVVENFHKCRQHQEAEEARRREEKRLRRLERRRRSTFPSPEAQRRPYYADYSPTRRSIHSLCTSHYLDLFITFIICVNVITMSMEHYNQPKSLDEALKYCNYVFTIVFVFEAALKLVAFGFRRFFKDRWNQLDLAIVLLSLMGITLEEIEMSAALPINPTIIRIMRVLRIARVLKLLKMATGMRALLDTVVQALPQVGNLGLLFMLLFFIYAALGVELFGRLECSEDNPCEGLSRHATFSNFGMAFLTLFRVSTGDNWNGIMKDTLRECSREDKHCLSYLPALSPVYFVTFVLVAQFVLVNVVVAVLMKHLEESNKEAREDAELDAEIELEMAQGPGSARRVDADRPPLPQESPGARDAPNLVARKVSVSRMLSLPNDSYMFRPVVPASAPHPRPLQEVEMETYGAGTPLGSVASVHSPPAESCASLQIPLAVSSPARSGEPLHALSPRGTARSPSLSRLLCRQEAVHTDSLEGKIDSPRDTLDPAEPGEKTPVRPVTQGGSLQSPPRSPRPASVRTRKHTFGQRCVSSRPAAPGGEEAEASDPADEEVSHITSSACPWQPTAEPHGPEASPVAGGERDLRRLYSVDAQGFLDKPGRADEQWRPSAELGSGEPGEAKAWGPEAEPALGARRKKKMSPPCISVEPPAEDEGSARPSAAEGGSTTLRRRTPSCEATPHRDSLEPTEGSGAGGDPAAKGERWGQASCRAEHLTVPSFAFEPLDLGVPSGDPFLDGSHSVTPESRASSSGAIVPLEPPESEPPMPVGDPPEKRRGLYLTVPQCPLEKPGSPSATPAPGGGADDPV

Prothrombin = Prothrombin (Homo sapiens, UniProt P00734); assay: Thrombin 1536 HTS Dose Response Confirmation. [Related pubchem assays: 1046 (Thrombin 1536 HTS; hits were confirmed in this assay)]; format: functional
INS1 = assay: beta cell apoptosis inhibitors, cytokine rescue, dose response, luminescence, retest (AID 449756); format: functional, cell-based; details: Rattus norvegicus;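 note: cell death triggered by IL-1 beta plus TNF-alpha plus IFN-gamma mixture; protective hits raise ATP signal compared with cytokine alone wells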
[7] = test system: Streptococcus sp. 'group A'; assay: growth inhibition of control SK(-) GAS strain, dose response, counter-screen for streptokinase expression inhibitor project, luminescence, kanamycin, BacTiterGlo, confirmation (AID 1900); format: functional, organism-based
[8] = growth suppression of beta-catenin-knockout colon cells, dose response, cell-based, HCT116, human colon tumor (AID 1045); format: functional;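 note: HCT116 colon tumor cells with beta catenin knocked out; cells exposed to compound for 60 hours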
[9] = Luminescence Cell-Based Dose Retest to Confirm Inhibitors of Cancer Stem Cells. [Related pubchem assays (depositor defined):AID2717, AID2721]; format: functional; details: Homo sapiens
[10] = growth suppression of PTEN-null colon cells, dose response, cell-based, HCT116 PTEN knockout (AID 1047); format: functional;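 note: HCT116 colon tumor cells with PTEN knocked out; cells exposed to compound for 60 hours before readout; potency for loss of cell viability measured by luminescence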
Streptococcus = assay: Group A Streptococcus viability loss, dose response, counter-screen for streptokinase expression inhibitor project, luminescence, BacTiterGlo (AID 1915); format: functional, organism-based;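 note: potency for reduction of bacterial viability or growth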
[11] = THP-1 cell cytotoxicity, dose response, cytotoxicity control for Vif-APOBEC3G degradation inhibitor project, THP-1 cells (AID 1117359); format: functional; details: Human immunodeficiency virus 1, THP-1
Cytochrome P450 1A2 = biological target: T4, Cytochrome P450 1A2 (Homo sapiens, UniProt P05177);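 note: PubChem cytochrome P450 panel assay, CYP1A2 panel member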
T4 sequence (P05177 whole entry): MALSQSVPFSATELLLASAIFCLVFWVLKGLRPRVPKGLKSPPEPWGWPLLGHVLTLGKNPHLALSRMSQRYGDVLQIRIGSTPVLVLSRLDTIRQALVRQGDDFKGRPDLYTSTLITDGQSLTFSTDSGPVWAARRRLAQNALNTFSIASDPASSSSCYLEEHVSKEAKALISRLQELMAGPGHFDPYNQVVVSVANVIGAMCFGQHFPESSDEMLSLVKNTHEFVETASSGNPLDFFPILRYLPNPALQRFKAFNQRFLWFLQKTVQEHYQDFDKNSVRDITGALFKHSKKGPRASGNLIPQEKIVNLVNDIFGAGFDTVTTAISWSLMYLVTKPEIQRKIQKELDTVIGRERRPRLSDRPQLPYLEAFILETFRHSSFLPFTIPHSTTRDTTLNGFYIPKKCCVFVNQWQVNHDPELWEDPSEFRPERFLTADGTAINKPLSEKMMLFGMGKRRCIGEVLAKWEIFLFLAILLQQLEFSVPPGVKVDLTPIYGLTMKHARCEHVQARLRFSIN

Protein RecA = biological target: T5, Protein RecA (Mycobacterium tuberculosis, UniProt P9WHJ3); assay: Fluorescence Cell-Free Homogeneous Dose Retest to Identify Inhibitors of RecA-Intein Splicing Activity. [Related pubchem assays (depositor defined):AID2097, AID2223, AID489010, AID492950]; format: functional
T5 sequence (P9WHJ3 whole entry): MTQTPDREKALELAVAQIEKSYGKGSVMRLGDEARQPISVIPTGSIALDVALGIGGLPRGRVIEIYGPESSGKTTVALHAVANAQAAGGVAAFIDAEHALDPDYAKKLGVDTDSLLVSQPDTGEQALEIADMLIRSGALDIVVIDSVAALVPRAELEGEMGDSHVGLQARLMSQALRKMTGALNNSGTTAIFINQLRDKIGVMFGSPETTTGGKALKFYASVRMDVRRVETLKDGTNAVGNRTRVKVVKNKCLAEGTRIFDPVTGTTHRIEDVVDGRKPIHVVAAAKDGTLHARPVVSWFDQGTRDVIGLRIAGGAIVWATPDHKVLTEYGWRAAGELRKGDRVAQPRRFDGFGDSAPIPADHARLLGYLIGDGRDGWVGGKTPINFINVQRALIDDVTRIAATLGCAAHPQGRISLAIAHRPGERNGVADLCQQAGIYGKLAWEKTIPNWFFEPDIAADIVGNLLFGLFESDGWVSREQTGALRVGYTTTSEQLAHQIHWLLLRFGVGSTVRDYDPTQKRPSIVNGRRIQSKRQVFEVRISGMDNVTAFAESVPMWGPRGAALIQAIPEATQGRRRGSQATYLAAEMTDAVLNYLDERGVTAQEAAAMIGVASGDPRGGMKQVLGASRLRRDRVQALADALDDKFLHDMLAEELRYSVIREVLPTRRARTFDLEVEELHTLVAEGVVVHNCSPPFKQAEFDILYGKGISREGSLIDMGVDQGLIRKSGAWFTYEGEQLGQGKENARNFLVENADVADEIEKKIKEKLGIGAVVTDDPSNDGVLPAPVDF

[12] = biological target: T6, Replicative DNA helicase DnaB (Mycobacterium tuberculosis, UniProt P9WMR3); assay: DnaB intein splicing inhibitors, dose response, biochemical, cell-free fluorescence (AID 449749); format: functional
T6 sequence (P9WMR3 whole entry): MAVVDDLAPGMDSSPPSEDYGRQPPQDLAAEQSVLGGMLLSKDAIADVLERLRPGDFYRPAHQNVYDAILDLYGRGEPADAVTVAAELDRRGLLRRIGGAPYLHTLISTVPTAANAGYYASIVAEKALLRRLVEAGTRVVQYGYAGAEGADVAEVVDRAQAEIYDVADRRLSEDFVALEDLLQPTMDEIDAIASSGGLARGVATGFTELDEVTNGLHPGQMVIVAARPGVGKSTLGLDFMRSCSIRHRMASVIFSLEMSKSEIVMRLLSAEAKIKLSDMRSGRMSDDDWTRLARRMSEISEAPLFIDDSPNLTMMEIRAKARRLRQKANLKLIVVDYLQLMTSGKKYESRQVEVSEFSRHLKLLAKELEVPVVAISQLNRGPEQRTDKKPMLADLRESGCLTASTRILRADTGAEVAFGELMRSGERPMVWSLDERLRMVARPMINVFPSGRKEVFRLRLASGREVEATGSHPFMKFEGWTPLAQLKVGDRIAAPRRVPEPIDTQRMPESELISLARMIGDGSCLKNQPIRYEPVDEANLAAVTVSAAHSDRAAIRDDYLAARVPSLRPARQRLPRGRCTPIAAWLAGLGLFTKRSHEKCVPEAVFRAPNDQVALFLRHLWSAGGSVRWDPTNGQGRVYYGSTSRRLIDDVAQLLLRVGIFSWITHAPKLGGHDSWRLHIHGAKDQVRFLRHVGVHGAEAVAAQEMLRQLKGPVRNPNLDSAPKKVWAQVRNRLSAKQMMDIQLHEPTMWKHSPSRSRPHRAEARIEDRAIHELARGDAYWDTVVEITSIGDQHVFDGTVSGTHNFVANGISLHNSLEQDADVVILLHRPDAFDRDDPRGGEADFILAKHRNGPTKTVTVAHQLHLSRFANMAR

Cytochrome P450 2D6 = Cytochrome P450 2D6 (Homo sapiens, UniProt P10635);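 note: CYP2D6 member of a cytochrome P450 panel assay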
Chain of Cytochrome P450 2D6 (P10635 whole entry): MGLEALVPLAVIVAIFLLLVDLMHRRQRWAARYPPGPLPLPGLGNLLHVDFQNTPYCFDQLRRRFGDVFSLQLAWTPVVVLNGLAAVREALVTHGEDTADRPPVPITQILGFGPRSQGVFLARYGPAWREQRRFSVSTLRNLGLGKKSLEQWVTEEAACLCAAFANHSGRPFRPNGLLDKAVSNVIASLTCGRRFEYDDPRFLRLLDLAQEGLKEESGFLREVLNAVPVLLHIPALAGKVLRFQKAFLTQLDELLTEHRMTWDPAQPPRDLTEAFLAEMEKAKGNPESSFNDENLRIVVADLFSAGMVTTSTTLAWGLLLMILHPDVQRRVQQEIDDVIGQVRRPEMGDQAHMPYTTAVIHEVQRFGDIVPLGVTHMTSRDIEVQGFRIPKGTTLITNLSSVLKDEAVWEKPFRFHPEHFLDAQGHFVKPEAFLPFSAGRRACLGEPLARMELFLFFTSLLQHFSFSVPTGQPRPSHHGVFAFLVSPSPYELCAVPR

SMILES: Cc1cccc(NC(=S)N=Nc2c(O)[nH]c3ccccc23)c1
- IC50 (Bcl-2-related protein A1): > 20 µM (inactive)
- EC50 [1]: 1.53 µM (active)
- EC50 [2]: 8.45 µM (active)
- IC50 [3]: 0.594 µM (active)
- EC50 [4]: 4.49 µM (active)
- IC50 [5]: 15 µM (active)

SMILES: Cc1ccccc1NC(=O)c1ccc(CN2CCC(Cc3ccccc3)CC2)cc1
- EC50 [6]: 0.134 µM (active)

SMILES: CC(C)N=C(S)N=Nc1c(O)[nH]c2ccc(C(C)C)cc12
- IC50 (Bcl-2-related protein A1): > 20 µM (inactive)
- EC50 [1]: 2.06 µM (active)
- IC50 [3]: 3.56 µM (active)
- EC50 [4]: 11 µM (active)
- IC50 [5]: 19.2 µM (active)

SMILES: O=C(Nc1nc(-c2cccs2)cs1)c1ccc(S(=O)(=O)N2CCCCC2)cc1
- EC50 [6]: 3.4 µM (active)

SMILES: O=C(O)C1CCN(c2ccc(Cl)nn2)CC1
- IC50 (Prothrombin): > 50 µM (not active)

SMILES: Clc1ccc2c(N/N=C/c3cccc(Br)c3)ccnc2c1
- AC50 (INS1): 7.17 µM (active)
- EC50 [7]: 3.24 µM (active)
- EC50 [8]: 4.89 µM (active)
- AC50 [9]: 5.63 µM (active)
- EC50 [10]: 4.59 µM (active)
- EC50 (Streptococcus): 4.4 µM (active)

SMILES: CCCOc1ccc(C(=O)Nn2c(C)nc3ccccc3c2=O)cc1
- IC50 (Bcl-2-related protein A1): > 20 µM (inactive)
- IC50 [3]: 1.32 µM (active)
- IC50 [5]: 1.54 µM (active)

SMILES: COc1ccc(-c2nc(C#N)c(NCc3ccccc3Cl)o2)cc1OC
- EC50 [8]: 29.1 µM (active)
- EC50 [10]: 25.1 µM (active)
- CC50 [11]: > 40 µM (active)

SMILES: COc1ccc(-c2ccc(CCC(=O)O)n2-c2ccccc2O)cc1
- IC50 (Prothrombin): 10.5 µM (active)

SMILES: COc1ccccc1NC(=O)CSc1nnc(-c2ccoc2C)n1CCc1ccccc1
- IC50 (Bcl-2-related protein A1): > 20 µM (inactive)
- IC50 [3]: 8.82 µM (active)
- IC50 [5]: 9.91 µM (active)

SMILES: Cn1c(CNc2cccc(Cl)c2)nnc1SCC(=O)OC1CCCCC1
- EC50 [6]: 2.53 µM (active)

SMILES: O=C(Nc1ccc(F)cc1F)c1ccc(-n2cncn2)nc1
- IC50 (Prothrombin): > 50 µM (not active)

SMILES: Nc1nc2ccccc2n1C(=O)c1ccco1
- IC50 (Prothrombin): > 50 µM (not active)

SMILES: CCOC(=O)c1c(NC(=O)COc2ccccc2C#N)sc2c1CC(C)(C)NC2(C)C
- IC50 (Bcl-2-related protein A1): > 20 µM (inactive)
- IC50 [3]: 4.91 µM (active)
- IC50 [5]: 5.94 µM (active)

SMILES: Cc1ccc2[nH]c(SCCCCOc3ccccc3)nc2c1
- EC50 [6]: 2.25 µM (active)

SMILES: CCOC(=O)C(C)Sc1cc(CS(=O)(=O)c2ccccc2)nc(-c2ccccc2)n1 (centres undefined)
- EC50 [6]: 8.17 µM (active)

SMILES: COc1ccccc1NC(=O)c1sc2ncn(Cc3ccc(C)cc3)c(=O)c2c1C
- IC50 (Prothrombin): > 50 µM (not active)

SMILES: CN(CCNC(=O)C1CCN(c2ncnc3c2nc2n3CCCCC2)CC1)Cc1ccccc1
- IC50 (Bcl-2-related protein A1): > 20 µM (inactive)
- IC50 [3]: 2.98 µM (active)
- IC50 [5]: 3.44 µM (active)

SMILES: CC(=O)Oc1ccc2ccccc2c1C(NC(=O)Cc1ccccc1)c1ccc(Cl)cc1 (centres undefined)
- AC50 (Cytochrome P450 1A2): 6.31 µM (inconclusive)
- EC50 [8]: 21.1 µM (active)
- AC50 [9]: 3.12 µM (active)
- EC50 (Protein RecA): 31.6 µM (active)
- AC50 [12]: 3.27 µM (active)
- AC50 (Cytochrome P450 2D6): 11.2 µM (inconclusive)
- EC50 [10]: 18.6 µM (active)
